Results reported in US9512118B2, “Crystal of fused heterocyclic compound” (TAKEDA PHARMACEUTICAL COMPANY LIMITED, priority 2011, dated 2016).
≈ marks a conversion by molar mass, not a printed value. Like-named read-outs stand apart in the source and are kept apart here.

Columns and labels:
[1] = Study of crystallization from various solvents (solubility at 55° C. and crystal form obtained); type: physicochemical; details: for solubility: 55 °C, organic solvent or mixture, thermodynamic from solid; for crystal form: dissolved at 55° C., cooled to 0-5° C., stirred 8 hr
Experimental: This solution was filtered through a filter with 0.22 μm pore size, and cooled to 0-5° C. with stirring. The mixture was stirred for 8 hr under cooling at 0-5° C.

[2] = room temperature
From the text: After stirring for one week, and after stirring for 2 weeks, the crystals of 1-ethyl-7-methyl-3-{4-[(3-methyl-3H-imidazo[4,5-b]pyridin-2-yl)oxy]phenyl}-1,3-dihydro-2H-imidazo[4,5-b]pyridin-2-one formed were collected by filtration, and the crystal form of the crystalline products was confirmed.

[3] = 80° C., 1 week, sealed glass bottle
[4] = 80° C., 2 weeks, sealed glass bottle

CCn1c(=O)n(-c2ccc(Oc3nc4cccnc4n3C)cc2)c2nccc(C)c21 [Form A, 1-ethyl-7-methyl-3-{4-[(3-methyl-3H-imidazo[4,5-b]pyridin-2-yl)oxy]phenyl}-1,3-dihydro-2H-imidazo[4,5-b]pyridin-2-one]
solubility ([1]; solvent 2-propanol): < 2700 µg/mL
solubility ([1]; solvent acetone): 6500 µg/mL (≈ 16.2 mM)
solubility ([1]; solvent acetonitrile): 8100 µg/mL (≈ 20.2 mM)
solubility ([1]; solvent chloroform): > 200000 µg/mL
solubility ([1]; solvent ethanol): 2600 µg/mL (≈ 6.49 mM)
solubility ([1]; solvent ethyl acetate): 3400 µg/mL (≈ 8.49 mM)
solubility ([1]; solvent methanol): 5600 µg/mL (≈ 14 mM)
solubility ([1]; solvent methylethylketone): 6800 µg/mL (≈ 17 mM)
solubility ([1]; solvent tetrahydrofuran): 26000 µg/mL (≈ 64.9 mM)
solubility ([1]; solvent toluene): 5200 µg/mL (≈ 13 mM)
solubility ([1]; solvent trifluoroethanol): > 200000 µg/mL
crystal form ([1]; crystallized from 2-propanol): Form A
crystal form ([1]; crystallized from acetone): Form A
crystal form ([1]; crystallized from acetonitrile): Form B
crystal form ([1]; crystallized from chloroform): Form A
crystal form ([1]; crystallized from ethanol): Form A
crystal form ([1]; crystallized from ethyl acetate): Form A
crystal form ([1]; crystallized from methanol): Form A
crystal form ([1]; crystallized from methylethylketone): Form A
crystal form ([1]; crystallized from tetrahydrofuran): Form A
crystal form ([1]; crystallized from toluene): Form G
crystal form ([1]; crystallized from trifluoroethanol): Form D
crystal form 1 week later ([2]; suspended in 1-butanol): Form A
crystal form 2 weeks later ([2]; suspended in 1-butanol): Form A
crystal form 1 week later ([2]; suspended in acetone): Form G
crystal form 2 weeks later ([2]; suspended in acetone): Form G
crystal form 1 week later ([2]; suspended in ethyl acetate): Form A + Form G
crystal form 2 weeks later ([2]; suspended in ethyl acetate): Form G
crystal form 1 week later ([2]; suspended in isopropyl alcohol): Form A
crystal form 2 weeks later ([2]; suspended in isopropyl alcohol): Form A
crystal form 1 week later ([2]; suspended in methanol): Form G
crystal form 2 weeks later ([2]; suspended in methanol): Form G
crystal form 1 week later ([2]; suspended in methylethylketone): Form G
crystal form 2 weeks later ([2]; suspended in methylethylketone): Form G
crystal form 1 week later ([2]; suspended in tetrahydrofuran): Form G
crystal form 2 weeks later ([2]; suspended in tetrahydrofuran): Form G
crystal form 1 week later ([2]; suspended in toluene): Form G
crystal form 2 weeks later ([2]; suspended in toluene): Form G

CCn1c(=O)n(-c2ccc(Oc3nc4cccnc4n3C)cc2)c2nccc(C)c21 [Form G, 1-ethyl-7-methyl-3-{4-[(3-methyl-3H-imidazo[4,5-b]pyridin-2-yl)oxy]phenyl}-1,3-dihydro-2H-imidazo[4,5-b]pyridin-2-one]
appearance [3]: no change
area percentage (%) of HPLC peak area of main form [3]: 99.7%
crystal form [3]: Form G
appearance [4]: no change
area percentage (%) of HPLC peak area of main form [4]: 99.6%
crystal form [4]: Form G
appearance (prestorage): white crystalline
area percentage (%) of HPLC peak area of main form (prestorage): 99.7%
crystal form (prestorage): Form G
